In US20230073512A1, “MODULATORS OF CULLIN 3 ADAPTOR KBTBD4 AS ANTI-CANCER COMPOUNDS” (UNIVERSITE DE MONTREAL, priority 2019, published 2023):

Each molecule was assayed on AML3 (assay: Cell proliferation of cancerous cell lines). Conditions: AML3; read-out: Antineoplastic effect of tested compounds on cell proliferation of cancerous AML3 cells, IC50.
Format: cell-based
For `Cn1nnc(-c2ccc3c(c2)[nH]c2nc(Cc4ccccc4)nc(NCCCN4CCCC4)c23)n1`, the IC50 was < 500 nM. For `CNS(=O)(=O)c1cccc(Nc2ncnc3[nH]c4cc(C(=O)OC)ccc4c23)c1`, the IC50 was < 500 nM. With `CCNCCNc1nc(Cc2ccccc2)nc2[nH]c3cc(C(=O)OC)ccc3c12` the IC50 was < 500 nM. Molecule `COC(=O)c1ccc2c(c1)[nH]c1nc(Cc3cccc(C(=O)C(F)(F)F)c3)nc(NCCCN3CCCCC3)c12` has an IC50 of 1000 to 2000 nM. Molecule `CNCCCNc1nc(Cc2ccccc2)nc2[nH]c3cc(C(=O)OC)ccc3c12` has an IC50 of 1000 to 2000 nM. Molecule `C#CCOC(CNc1nc(Cc2ccccc2)nc2[nH]c3cc(C(=O)OC)ccc3c12)CN1CCCCC1` (stereo not drawn) has an IC50 of 2000 to 5000 nM. Molecule `COC(=O)c1ccc2c(c1)[nH]c1nc(Cc3ccccc3)nc(NCC(O)CN3CCCCC3)c12` (stereo not drawn) has an IC50 of 2000 to 5000 nM. `COC(=O)c1ccc2c(c1)[nH]c1nc(Cc3ccccc3)nc(NCCCN(C)CCCN)c12` showed an IC50 of 1000 to 2000 nM. In the case of `COC(=O)c1ccc2c(c1)[nH]c1nc(Cc3ccccc3)nc(NCCCN(C)CC(O)COCc3ccccc3)c12` (stereo not drawn), the IC50 is reported as 2000 to 5000 nM. `COC(=O)c1ccc2c(c1)[nH]c1nc(Cc3ccccc3)nc(NCCN(C)CCN)c12` showed an IC50 of 1000 to 2000 nM. `COC(=O)c1ccc2c(c1)[nH]c1nc(Nc3ccccc3)nc(NCCCN3CCCCC3)c12` gave an IC50 of 1000 to 2000 nM. Molecule `Cc1nc(-c2ccc3c(c2)[nH]c2nc(Cc4ccccc4)nc(NCCCN4CCCCC4)c23)no1` has an IC50 of 1000 to 2000 nM. With `COC(=O)c1ccc2c(c1)[nH]c1nc(C(OCc3ccccc3)c3ccccc3)nc(NCCCN3CCCCC3)c12` (stereo not drawn) the IC50 was 1000 to 2000 nM. For `COC(=O)c1ccc2c(c1)[nH]c1nc(C(O)c3ccccc3)nc(NCCCN3CCCCC3)c12` (stereo not drawn), the IC50 was 500 to 1000 nM. `COC(=O)c1ccc2c(c1)[nH]c1nc(Cc3ccccc3)nc(SCCCN3CCCCC3)c12` showed an IC50 of 2000 to 5000 nM. Molecule `COC(=O)c1ccc2c(c1)[nH]c1nc(C(=O)c3ccccc3)nc(NCCCN3CCCCC3)c12` has an IC50 of 2000 to 5000 nM. `COC(=O)c1ccc2c(c1)[nH]c1nc(C(C)c3ccccc3)nc(NCCCN3CCCCC3)c12` (stereo not drawn) gave an IC50 of 2000 to 5000 nM. `COC(=O)c1ccc2c(c1)[nH]c1nc(Cc3ccccc3)nc(CCCCN3CCCCC3)c12` showed an IC50 of 1000 to 2000 nM. For `C#CCNCCCN(C)CCCNc1nc(Cc2ccccc2)nc2[nH]c3cc(C(=O)OC)ccc3c12`, the IC50 was 1000 to 2000 nM. `COC(=O)c1ccc2c(c1)[nH]c1nc(Cc3ccccc3)nc(NCC3CCCN3)c12` (stereo not drawn) showed an IC50 of 2000 to 5000 nM. `C#CCCC(=O)NCCCN(C)CCCNc1nc(Cc2ccccc2)nc2[nH]c3cc(C(=O)OC)ccc3c12` showed an IC50 of 500 to 1000 nM. `COC(=O)c1ccc2c(c1)[nH]c1nc(Cc3ccccc3)nc(NCCCN(C)CCCNc3ncnc4[nH]c5ccccc5c34)c12` was tested, and the IC50 was 2000 to 5000 nM. `CN1CCN(c2ccc(CNc3nc(Cc4ccccc4)nc4[nH]c5cc(-c6nnn(C)n6)ccc5c34)cc2)CC1` was tested, and the IC50 was 500 to 1000 nM. Work on `COC(=O)c1ccc2c(c1)[nH]c1nc(Cc3ccccc3)nc(Cl)c12` yielded an IC50 of 1000 to 2000 nM. For `COC(=O)c1ccc2c(c1)[nH]c1nc(Cc3ccccc3)nc(NCC3CCNC3)c12` (stereo not drawn), the IC50 was 500 to 1000 nM. In the case of `Cn1nnc(-c2ccc3c(c2)[nH]c2ncnc(N[C@H]4CC[C@H](N)CC4)c23)n1`, the IC50 is reported as 1000 to 2000 nM. `Cn1nnc(-c2ccc3c(c2)[nH]c2cc(Cc4ccccc4)nc(NCCCN4CCCCC4)c23)n1` was tested, and the IC50 was 1000 to 2000 nM. `COC(=O)c1ccc2c(c1)[nH]c1nc(Cc3ccccc3)cc(NCCCN3CCCCC3)c12` showed an IC50 of 2000 to 5000 nM. `COC(=O)c1ccc2c(c1)[nH]c1cc(Cc3ccccc3)nc(NCCN3CCCC3)c12` gave an IC50 of 2000 to 5000 nM. For `CN(CCCN)CCCNc1nc(Cc2ccccc2)nc2[nH]c3cc(-c4nnn(C)n4)ccc3c12`, the IC50 was 500 to 1000 nM. `Cn1nnc(-c2ccc3c(c2)[nH]c2nc(Cc4ccccc4)nc(NCCCNCCCN)c23)n1` was tested, and the IC50 was 2000 to 5000 nM. In the case of `CC(=O)NCCNc1nc(Cc2ccccc2)nc2[nH]c3cc(-c4nnn(C)n4)ccc3c12`, the IC50 is reported as 2000 to 5000 nM. `Cn1nnc(-c2ccc3c(c2)[nH]c2nc(Cc4ccccc4)nc(NCCCNCCCNC(=O)CCCC[C@@H]4SC[C@@H]5NC(=O)N[C@@H]54)c23)n1` showed an IC50 of 1000 to 2000 nM. With `Cn1nnc(-c2ccc3c(c2)[nH]c2nc(Cc4ccccc4)nc(NCCN)c23)n1` the IC50 was 1000 to 2000 nM. `COC(=O)c1ccc2c(c1)[nH]c1nc(Cc3cccc(F)c3)nc(NCCCN(C)CCCN)c12` showed an IC50 of 2000 to 5000 nM. `Cn1nnc(-c2ccc3c(c2)[nH]c2ncnc(NCC(O)CN4CCCCC4)c23)n1` (stereo not drawn) showed an IC50 of 1000 to 2000 nM.
